The values below come from publication PMC12525867, “Aromaticity Tuning in Biaryl Monophosphines and Their Derivatives” (Molecules, 2025).

Common to all, as to test: Antibacterial screening, broth microdilution (MIC/MBC)
(Broth dilution looks for growth in wells or tubes with falling amounts of substance.)

The test system of test [1] is A. baumannii ATCC 19606. It counts as cell-based, Acinetobacter baumannii. The note with it: Acinetobacter baumannii, ATCC19606; A. baumannii ATCC 19606, MHB, 24 h, 35 °C; read-out: MIC. The procedure: (§1) The antimicrobial activities of a series of compounds 1–5 were tested through the utilization of seven reference species, encompassing both Gram-positive (Staphylococcus aureus ATCC 29213, Staphylococcus epidermidis ATCC 12228, Micrococcus luteus ATCC 10240) and Gram-negative (Escherichia coli ATCC 25922, Klebsiella pneumoniae ATCC 13883, Proteus mirabilis ATCC 12453, Acinetobacter baumannii ATCC 19606) bacteria as model microorganisms. For this purpose, microbial suspensions were prepared in sterile saline (0.85% NaCl) with an optical density of 0.5 McFarland standard, yielding a concentration of 150 × 10^6 CFU/mL (CFU, colony-forming units). All of the stock solutions of the tested compounds were dissolved in DMSO. Amoxicillin (Glentham Life Sciences Ltd., Corsham, UK) was used as a positive control.
(§2) The MIC values of the tested compounds were determined by serial twofold dilutions of 1–5 in Mueller Hinton Broth (MHB, Biomaxima, Lublin, Poland). The range of final 1–5 concentrations used was from 0.49 up to 1000 μg/mL, and for amoxicillin from 0.12 up to 250 μg/mL in the 96-well microtiter plates (Medlab, Raszyn, Poland), starting with 98 μL MHB and 2 μL bacterial inoculum added to each well. Positive controls consisted of 100 μL MHB in each well with the tested compounds at the same concentration range. The negative controls consisted of 100 μL of MHB only. Each set of tests and controls was established with three replicates. The microtiter plates were then subjected to an incubation period of 24 h at a temperature of 35 ± 2 °C. After incubation, the optical density of the microbial growth was measured at a wavelength of 600 nm using a microplate reader, the Biotek Elx800 (BioTek Instruments, Inc., Winooski, VT, USA). The MIC value was defined as the lowest concentration of the tested compound at which there was no visible growth of the tested microorganisms. The determination of the MIC values was achieved by employing the broth microdilution method, in accordance with the recommendations of the European Committee on Antimicrobial Susceptibility Testing (EUCAST). […] Then, the MHA plates were incubated overnight at 35 ± 2 °C. […] The MIC and MBC values were reported in μg/mL, according to the EUCAST reference.

In test [2] the test system is S. aureus ATCC 29213. The format is cell-based, Staphylococcus aureus. The settings on record: Staphylococcus aureus, ATCC29213; for MIC: S. aureus ATCC 29213, MHB, 24 h, 35 °C, read-out: MIC; for MBC: S. aureus ATCC 29213, read-out: MBC. The procedure:
as §1, §2

Test [3] deals with E. coli ATCC 25922. It counts as cell-based, Escherichia coli. The settings on record: Escherichia coli, ATCC25922; for MIC: E. coli ATCC 25922, MHB, 24 h, 35 °C, read-out: MIC. Here is the method:
as §1, §2

The subject of test [4] is P. mirabilis ATCC 12453. The format is cell-based, Proteus mirabilis. The settings on record: Proteus mirabilis, ATCC12453; P. mirabilis ATCC 12453, MHB, 24 h, 35 °C; read-out: MIC. Here is the method: as §1, §2

≈ marks a conversion by molar mass, not a printed value.

By MIC is commonly meant the lowest concentration that inhibits growth of the organism. The term MBC denotes the lowest tested concentration that kills the bacteria rather than only halting them. Turning to `COc1cc(OC)c(-c2c(P(=O)(C3CCCCC3)C3CCCCC3)c(OC)c3ccccc3c2OC)c(OC)c1` [Compound 1, Dicyclohexyl[1,4-dimethoxy-3-(2,4,6-trimethoxyphenyl)naphthalen-2-yl]phosphane oxide], the MIC is 1000 µg/mL (≈ 1760 µM) in test [1], 15.6 to 31.2 µg/mL (≈ 27.6 to 55.1 µM) in test [2], 500 to 1000 µg/mL (≈ 882 to 1760 µM) in test [3] and above 1000 µg/mL in test [4]. Moreover, the MBC in test [2] is above 1000 µg/mL.
In the case of `COc1ccccc1-c1c(P(=O)(C2CCCCC2)C2CCCCC2)c(OC)c2ccccc2c1OC` [Compound 2, Dicyclohexyl[1,4-dimethoxy-3-(2-methoxyphenyl)naphthalen-2-yl]phosphane oxide], the MIC was 500 µg/mL (≈ 987 µM) in test [1], 7.82 to 15.6 µg/mL (≈ 15.4 to 30.9 µM) in test [2], above 1000 µg/mL in test [3] and above 1000 µg/mL in test [4]. In addition, in test [2], the MBC is above 1000 µg/mL.
Regarding `COc1cc(OC)c(-c2c(P(=O)(C3CCCCC3)C3CCCCC3)c(O)c3ccccc3c2OC)c(OC)c1` [Compound 3, 2-(Dicyclohexylphosphoryl)-4-methoxy-3-(2,4,6-trimethoxyphenyl)naphthalen-1-ol], the MIC is above 1000 µg/mL in test [1], 62.5 to 125 µg/mL (≈ 113 to 226 µM) in test [2], 250 to 500 µg/mL (≈ 452 to 905 µM) in test [3] and above 1000 µg/mL in test [4]. The MBC in test [2] and in test [3] (E. coli ATCC 25922) was above 1000 µg/mL each time.
